Laboratory results as given in patent US20050208496A1, “Methods of testing for bronchial asthma or chronic obstructive pulmonary disease” (Genox Research, Inc., priority 2002, published 2005).

Key:
[1] = system: respiratory epithelial cells; assay: Goblet cell differentiation of respiratory epithelial cells upon IL-13 stimulation (PAS and Alcian blue staining); type: cell-based, human
Experimental: After the cell count was determined, cells were plated at the cell density of 10^6 cells/cm^2 on a filter membrane with 0.45-μm pores, being attached to the bottom of a Millicell-HA Culture Plate Insert (Millipore Corp.). At the time of plating, Vitrogen gel (Vitrogen from Celtrix Pharmaceuticals, Inc. was used after gelation) was placed on the filter membrane as a growth-supporting material, and the epithelial cells were placed thereon. The Millicell inserts were placed in a 24-well plate (Falcon) containing a culture medium, which was a 1:1 mixture of Dulbecco's MEM and Ham F12 containing 2% Ultroser G and the antibiotics, penicillin, streptomycin, gentamycin, and amphotericin B. The cells were incubated overnight. Then, cells that had not adhered to the collagen gel were removed, and the remaining cells were cultured while the cell side was in contact with air (air interface) for approximately two weeks (See FIG. 1). The basic procedures of the AI method by which respiratory epithelial cells were cultured were the same as those described in the following reports:
As basically done in the AI method, Vitrogen gel was placed on a filter membrane, and epithelial cells were placed thereon. The IMM method is different from the AI method in the point that the IMM method comprises adding a medium to cover the epithelial cells. […]

mouse pendrin gene = assay: Quantitative PCR of the mouse pendrin gene in the lung of the OVA antigen-exposed bronchial hypersensitivity model; type: in vivo; settings: lung 24 hours after third antigen inhalation

Row | Substance | differentiation into goblet cells (PAS and Alcian blue staining) ([1]; AI method, IL-13 50 ng/mL, after 14 days of incubation) | goblet cell differentiation ([1]; IMM method) | mouse pendrin gene expression level in the lung versus physiological saline-inhaled mice (quantitative PCR) (mouse pendrin gene)
1 | IL-13: human IL-13 (Peprotech, Inc.) added to the medium at 50 ng/mL to stimulate respiratory epithelial cells | differentiated into goblet cells | not observed | 
2 | ovalbumin [OVA antigen, ovalbumin antigen used for sensitization and inhalation to induce bronchial hypersensitivity in mice] |  |  | about 50 times
